Data as given in paper PMC5614690, “Peptide translocation across MOMP, the major outer membrane channel from Campylobacter jejuni” (Biochemistry and Biophysics Reports, 2017).

Legend:
MOMP channel = assay: Single-channel ion-current measurement of MOMP in planar lipid bilayer (peptide binding and translocation); design: species or system Campylobacter jejuni (strain 85 H); conditions: for ion-current blockage of MOMP monomer: 3 µM peptide, +125 mV; for kon (association rate) / koff (dissociation rate): 10 µM peptide, single MOMP monomer (MOMP cis); for kon (association rate): DPhPC bilayer; for Ka (equilibrium binding constant): Ka = kon/koff; for on-rate (range given): Penta- and Hepta-arginine together; for koff (dissociation rate): koff = 1/τ; for association rate kon as a function of applied voltage: +150 to +250 mV, Penta- vs Hepta-arginine, Fig. 3A; for translocation across MOMP: concluded from voltage dependence of ion-current fluctuations; for residence time, cis vs trans peptide addition / frequency of binding events, cis vs trans peptide addition: control: peptide on cis (ground) side; for residence time, cis vs trans peptide addition: –125 to –250 mV; for frequency of binding events, cis vs trans peptide addition: –150 and –250 mV; for threshold potential for successful translocation: peptide trans, MOMP cis
Description: The planar lipid bilayer was formed using solvent free lipid bilayer technique, [29]. In brief, the cuvettes used for our bilayer experiments consist of cis (electrical ground and side of protein addition if not otherwise indicated) and trans chambers separated by a 25 µm thick Teflon film (Goodfellow, Cambridge, UK) carrying an aperture with a diameter of 40–70 µm. Prior to forming a lipid bilayer, the aperture is pre-painted with 1 μl of 1% hexadexane in hexane. 5% solution of DPhPC in hexane is commonly used as lipid stock. The chambers are filled with electrolyte solution which typically consists of 1 M KCl, 10 mM MES, pH 6.0 with a total solution volume of 2.5 ml. On top of the aqueous phase about 1 μl of the lipid stock solution is placed. After 10 min allowing for evaporation of solvent, the membrane is formed by raising and lowering the water level. To investigate the outer membrane protein of C. jejuni, MOMP was added to the cis (ground) side of the chamber to a final concentration of 5 ng/ml and the channel insertion was facilitated by rapid mixing of the content of the chamber while applying a transmembrane potential of −199 mV. Electrical recordings were made through a pair of Ag/AgCl electrodes (World Precision Instruments, Sarasota, FL, USA), attached to an Axon Instruments 200B amplifier (Axon Instruments Inc., Sunnyvale, CA, USA) in the voltage clamp mode. Data were filtered by a low pass Bessel filter at 10 kHz and directly saved into the computer memory with a sampling frequency of 50 kHz. Data analysis was performed using Clampfit software of version 10.4 (Axon Instruments Inc., Sunnyvale, CA, USA). To obtain quantitative information on the interaction of peptides with the channel we assume that peptide binding or penetration to the channel cause sufficiently strong reduction of the ion-current compared to the typical background noise. […] This is even more pronounced for longer peptides (Fig. 1C and D).
Fig. 1 Typical ion-conductance traces of monomeric MOMP in presence of poly-arginines at +125 mV. A. In the absence of peptides; B. 3 µM of Tri-arginine; C. […] Experimental conditions: 1 M KCl, 10 mM MES, pH 6.0, T= 20 °C. The peptide is added to the trans compartment of the cuvette corresponding to the electrode at positive voltage. For the sake of clarity the traces were filtered at 5 kHz. MOMP is added on the cis (ground) side (n = 4).
For further analysis we should note that in our experiment we work under dilute concentrations and thus, the number of entries is in good approximation proportional to the concentration of the peptides in solution. The on-rate kon (association rate) is obtained by counting the number of ion-current blockage events per time n [s^−1] divided by the concentration [c] of the peptide, [26], [29], [30]. Furthermore, in some cases we have trimeric MOMP and the ion-current blockages may originate independently from one of the three monomers. kon=n/3[c]
On the other hand the opening is a statistical event and correlated to the strength of the binding. A channel which is closed at t = 0 will have the probability R(t) to open at time t. Within the above described simple binding model an exponential function R(t) = e^-t/τ. Fitting the life-time distribution of a closed channel by an exponential parameter τ (or dwell time) yields the off-rate (dissociation rate) koff = 1/τ [30]. The equilibrium binding constant Ka [M^−1] of the peptide to the channel is given by the ratio of the rates Ka = kon/koff.
Fig. 2 Analysis of the ion-current fluctuations. A. Hepta-arginine concentration dependence of binding events; data were analysed at applied voltages, +150 and +250 mV; and B. Frequency of binding events of the peptide (10 µM) vs. applied transmembrane potential. Experimental conditions: 1 M KCl, 10 mM MES, pH 6.0, T= 20 °C. MOMP is added on the cis (ground) side (n = 4).
A. Voltage dependence of the on-rate; and B. off-rate. […]

Nocardia channel = conditions: ref [25]; cited from earlier work
Excerpt: Binding and translocation can be distinguished using the voltage dependency of the association and disassociation rates. If the time spent by a charged molecule inside the channel increases with increasing voltage, we conclude that the molecule is pulled inside on one side of the channel without being translocated. On the other hand, if the residence time decreases with increasing voltage we conclude that the molecule is able to follow the electric field gradient leaving faster to the other side. In the case of Hepta-arginine, the residence time increased from ~100 to 410 µs with increa ...

[1] = trans side, 1 M KCl, 10 mM MES, pH 6.0, 20 °C, n = 4
[2] = +150 mV, trans side, 1 M KCl, 10 mM MES, pH 6.0, 20 °C, n = 4
[3] = +150 mV, 1 M KCl, 10 mM MES, pH 6.0, 20 °C
[4] = +150 mV, 10 µM, trans side, 1 M KCl, 10 mM MES, pH 6.0, 20 °C
[5] = +175 mV, trans side, 1 M KCl, 10 mM MES, pH 6.0, 20 °C, n = 4
[6] = +175 mV, 1 M KCl, 10 mM MES, pH 6.0, 20 °C
[7] = +250 mV, trans side, 1 M KCl, 10 mM MES, pH 6.0, 20 °C, n = 4
[8] = +250 mV, 1 M KCl, 10 mM MES, pH 6.0, 20 °C
[9] = 1 M KCl, 10 mM MES, pH 6.0, 20 °C

| Substance | strength of channel–peptide interaction (order) (MOMP channel) | ion-current blockage of MOMP monomer (MOMP channel; [1]) | kon (association rate) (MOMP channel; [2]) | Ka (equilibrium binding constant) (MOMP channel; [3]) | on-rate (range given) (MOMP channel; [4]) | koff (dissociation rate) (MOMP channel; [2]) | association rate kon as a function of applied voltage (MOMP channel) | kon (association rate) (MOMP channel; [5]) | Ka (equilibrium binding constant) (MOMP channel; [6]) | koff (dissociation rate) (MOMP channel; [5]) | kon (association rate) (MOMP channel; [7]) | Ka (equilibrium binding constant) (MOMP channel; [8]) | koff (dissociation rate) (MOMP channel; [7]) | translocation across MOMP (MOMP channel) | residence time, cis vs trans peptide addition (MOMP channel; n = 4) | frequency of binding events, cis vs trans peptide addition (MOMP channel; n = 4) | threshold potential for successful translocation (MOMP channel; [9]) | voltage for pulling peptide through Nocardia channel (Nocardia channel) | other results |
| --- | --- | --- | --- | --- | --- | --- | --- | --- | --- | --- | --- | --- | --- | --- | --- | --- | --- | --- | --- |
| H-RRRRR-OH [Penta-arginine, H-RRRRR-OH trifluoroacetate salt, Mw: 0.798 kDa, from Bachem AG] | Hepta-arginine > Penta-arginine > Tri-arginine | complete monomer blockage | 12.9 ± 1.2 (M^−1 s^−1) × 10^6 | 2.0 ± 0.5 (M^−1) × 10^3 | 13 ± 2 10^6 M^−1 s^−1 | 6.2 ± 0.3 (s^−1) × 10^3 | almost identical increasing values | 20.4 ± 1.2 (M^−1 s^−1) × 10^6 | 4.1 ± 0.3 (M^−1) × 10^3 | 5.0 ± 0.6 (s^−1) × 10^3 | 34.7 ± 0.8 (M^−1 s^−1) × 10^6 | 3.3 ± 0.2 (M^−1) × 10^3 | 10.3 ± 0.8 (s^−1) × 10^3 | translocate across the MOMP channel | did not reveal significant differences | did not reveal significant differences | +175 mV | > –175 mV | koff relative to Hepta-arginine (MOMP channel; Fig. 3B, 10 µM, trans side): about twice higher off-rates; permeation vs voltage (MOMP channel; increasing voltages): permeated faster with increasing voltages |
| H-RRRRRRR-OH [Hepta-arginine, H-RRRRRRR-OH trifluoro acetate salt, Mw: 1.111 kDa, from Bachem AG] | Hepta-arginine > Penta-arginine > Tri-arginine | complete monomer blockage | 14.5 ± 1.5 (M^−1 s^−1) × 10^6 | 4.4 ± 0.3 (M^−1) × 10^3 | 13 ± 2 10^6 M^−1 s^−1 | 3.2 ± 0.1 (s^−1) × 10^3 | almost identical increasing values | 22.2 ± 0.8 (M^−1 s^−1) × 10^6 | 8.5 ± 0.2 (M^−1) × 10^3 | 2.6 ± 0.3 (s^−1) × 10^3 | 39.1 ± 0.5 (M^−1 s^−1) × 10^6 | 7.7 ± 0.3 (M^−1) × 10^3 | 5.0 ± 0.8 (s^−1) × 10^3 | translocate across the MOMP channel | did not reveal significant differences | did not reveal significant differences | +175 mV | > −150 mV | number of binding events vs peptide concentration (MOMP channel; 1 to 10 µM, +150 and +250 mV, n = 4): the number of binding events increased with the concentration of the peptide; binding vs translocation, low voltage (MOMP channel; +125 to +175 mV, 10 µM): binds to channel without being translocated; reduction in residence time with voltage (MOMP channel; +175 to +250 mV): reduction of one-fold; binding vs translocation, high voltage (MOMP channel; +175 to +250 mV, 10 µM): successful translocation of the peptide; ion-current blockage, reverse addition (MOMP channel; peptide on cis (ground) side, MOMP on trans side, negative voltages): strong monomer blockages with negative voltages; residence time, end of decrease (MOMP channel; peptide on cis (ground) side, MOMP on trans side, –125 to –250 mV (Fig. S5), final value, 1 M KCl, 10 mM MES, pH 6.0, 20 °C, n = 4): 200 µs; residence time, start of decrease (MOMP channel; peptide on cis (ground) side, MOMP on trans side, –125 to –250 mV (Fig. S5), starting value, 1 M KCl, 10 mM MES, pH 6.0, 20 °C, n = 4): 410 µs |
| Tri-arginine | Hepta-arginine > Penta-arginine > Tri-arginine | visible but very short and not fully resolvable monomer blockages |  |  |  |  |  |  |  |  |  |  |  |  |  |  |  |  | residence time (MOMP channel; +125 to +250 mV, 10 µM, trans side (MOMP cis), corresponds to time resolution of the instrument, 1 M KCl, 10 mM MES, pH 6.0, 20 °C, n = 4): ~ 70 ± 5 µs |
